In ChEMBL document CHEMBL3885861, “Open TG-GATES”:

Species: Rattus norvegicus
Assay: Open TG-GATES - Regimen: Single
Assay type: toxicity, organism-based, Sprague-Dawley
Set-up: regimen Single, gender Male, age 6 weeks
Conditions: in vivo, po, 600 mg/kg, route gavage, dose level High; for APTT / Bas / Eos / Fbg / Hb / Ht / MCH / MCHC / MCV / Mono / PT / Plat / RBC / Ret / WBC: tissue Blood; for ALP / ALT / CRE / DBIL / GLC / IP / K / LDH / Na / PL / RALB / TBIL / TC / TG / TP / gamma-GTP: tissue Plasma

## CCN(CC)C(=S)SSC(=S)N(CC)CC
3 h
  TERMINAL_BW: 218 g
  APTT: 21.3 s
  Bas: 0%
  Eos: 0.8%
  Fbg: 293.2 mg/dL
  Hb: 13.4 g/dL
  Ht: 41.4%
  MCH: 20 pg
  MCHC: 32.4%
  MCV: 61.6 fL
  Mono: 4.2%
  PT: 16.2 s
  Plat: 126.4 x10_4/uL
  RBC: 674 x10_4/ul
  Ret: 7.9%
  WBC: 82 x10_2/uL
  ALP: 1358.2 IU/L
  ALT: 45.8 IU/L
  CRE: 0.1 mg/dL
  DBIL: 0.01 mg/dL
  GLC: 194.8 mg/dL
  IP: 10.1 mg/dL
  K: 4 meq/L
  LDH: 250.2 IU/L
  Na: 141.4 meq/L
  PL: 132 mg/dL
  RALB: 3.1 g/dL
  TBIL: 0.008 mg/dL
  TC: 76.6 mg/dL
  TG: 57.8 mg/dL
  TP: 5.6 g/dL
  gamma-GTP: 1 IU/L
6 h
  TERMINAL_BW: 211.8 g
  APTT: 23.9 s
  Bas: 0%
  Eos: 0.8%
  Fbg: 304 mg/dL
  Hb: 13.7 g/dL
  Ht: 42.2%
  MCH: 20.5 pg
  MCHC: 32.4%
  MCV: 63.2 fL
  Mono: 2.4%
  PT: 16.3 s
  Plat: 117.9 x10_4/uL
  RBC: 668.2 x10_4/ul
  Ret: 7.1%
  WBC: 73.5 x10_2/uL
  ALP: 1429.6 IU/L
  ALT: 37.6 IU/L
  CRE: 0.1 mg/dL
  DBIL: 0.01 mg/dL
  GLC: 207.2 mg/dL
  IP: 9.7 mg/dL
  K: 4.3 meq/L
  LDH: 182.6 IU/L
  Na: 140.6 meq/L
  PL: 134.2 mg/dL
  RALB: 3.1 g/dL
  TBIL: 0.014 mg/dL
  TC: 80.8 mg/dL
  TG: 23.4 mg/dL
  TP: 5.5 g/dL
  gamma-GTP: 1.2 IU/L
9 h
  TERMINAL_BW: 206.5 g
  APTT: 23.7 s
  Bas: 0.2%
  Eos: 0.6%
  Fbg: 299 mg/dL
  Hb: 13.3 g/dL
  Ht: 40.6%
  MCH: 20.7 pg
  MCHC: 32.8%
  MCV: 63.2 fL
  Mono: 2.2%
  PT: 16.2 s
  Plat: 119.4 x10_4/uL
  RBC: 642.4 x10_4/ul
  Ret: 7.3%
  WBC: 77.1 x10_2/uL
  ALP: 1243.4 IU/L
  ALT: 36.6 IU/L
  CRE: 0.1 mg/dL
  DBIL: 0.014 mg/dL
  GLC: 200.4 mg/dL
  IP: 8.9 mg/dL
  K: 4.2 meq/L
  LDH: 184 IU/L
  Na: 140.6 meq/L
  PL: 136 mg/dL
  RALB: 3.2 g/dL
  TBIL: 0.02 mg/dL
  TC: 79.2 mg/dL
  TG: 57.4 mg/dL
  TP: 5.6 g/dL
  gamma-GTP: 1 IU/L
24 h
  TERMINAL_BW: 222.1 g
  APTT: 21.6 s
  Bas: 0%
  Eos: 0.8%
  Fbg: 290.2 mg/dL
  Hb: 12.7 g/dL
  Ht: 39%
  MCH: 19.5 pg
  MCHC: 32.4%
  MCV: 60.1 fL
  Mono: 2.2%
  PT: 16 s
  Plat: 115.3 x10_4/uL
  RBC: 649.8 x10_4/ul
  Ret: 6.8%
  WBC: 94.6 x10_2/uL
  ALP: 1144.8 IU/L
  ALT: 40.2 IU/L
  CRE: 0.1 mg/dL
  DBIL: 0.014 mg/dL
  GLC: 177.8 mg/dL
  IP: 7.7 mg/dL
  K: 3.9 meq/L
  LDH: 183.4 IU/L
  Na: 142.4 meq/L
  PL: 149.4 mg/dL
  RALB: 3.1 g/dL
  TBIL: 0.024 mg/dL
  TC: 91 mg/dL
  TG: 92.6 mg/dL
  TP: 5.5 g/dL
  gamma-GTP: 1 IU/L
